The test system of experiment [1] is kainic acid-treated ICR mice. The experiment can be described thus: Seizure level in kainic acid epileptic seizure model. It is filed as in vivo.
Protocol: Four-week-old male ICR mice were fed with normal diet, tyrosine (L-Tyr), or tyrosine-containing peptide (3xYQ, 1xYW, or 3xYW) for one week. […] Kainic acid (KA) was dissolved in saline by heating in a water bath, resulting in a 4.5 mg/ml KA solution. The resulting KA solution was then intraperitoneally injected at a dose of 36 mg/kg, and seizure level and symptoms were recorded for 2 hours.
In experiment [2] the test system is chronic immobilization stress C57BL/6 mice. The note with it: stress group, peptide diet vs normal diet. The method, then: A total of 28 male C57BL/6 mice at 7 weeks of age were divided into two groups: a control group (CTL) and a stress group (STR). The stress group was subjected to chronic immobilization stress for 15 days. Specifically, each mouse in the stress group was individually placed in a restrainer for 2 hours daily from […] to induce chronic immobilization stress. The control group (CTL) and stress group (STR) were further classified based on their diets. […] After the completion of the 15-day chronic immobilization stress, the mice were subjected to a sucrose preference test (SPT). Blood samples and prefrontal cortex (PFC) tissues were collected from the mice for subsequent test.
For the analysis of anti-depressive effect, blood and PFC tissues were collected from mice that underwent chronic immobilization stress. The blood collected from mice was centrifuged at 1,000×g for 10 minutes at 4° C. to separate the plasma, and the supernatant was collected and diluted 1/20 with PBS to prepare a sample. The corticosterone concentration in the plasma was then measured using the Corticosterone EIA kit (Cayman) by following the manufacturer's instructions.
In addition, the plasma diluted with PBS at a ⅓ ratio and the PFC tissue lysate (50 μg) were prepared. The ROS/RNS (reactive oxygen species/reactive nitrogen species) level in the plasma and PFC tissues was measured using the ROS/RNS assay kit (Cell Biolabs) according to the manufacturer's instructions.
In addition, the depression was evaluated by measuring the sucrose preference of mice that had undergone 15 days of chronic immobilization stress. The sucrose preference test was conducted over a total of 4 days. Equal amounts of 0.1 M sucrose solution and water were provided in identical bottles of the same size and shape. On the first day, mice were given access to 0.1 M sucrose solution and water for 24 hours. On the second day, the positions of the sucrose solution and water bottles were switched, and mice were given access for 24 hours. On the third day, no sucrose solution or water was provided. On the fourth day, mice were again given access to equal amounts of 0.1 M sucrose solution and water for 3 hours, the positions were then switched, and access was provided for another 3 hours. The amount of sucrose solution and water consumed during the 6-hour period on the fourth day was measured, and the sucrose preference (%) was calculated according to the following formula.
Sucrose preference (%)=Sucrose intake amount/(Water intake amount+Sucrose intake amount)×100

The test system of experiment [3] is glutamine synthetase (GS). The experiment can be described thus: GS activity and GS tyrosine nitration in PFC, chronic immobilization stress model. It is filed as in vivo, C57BL/6 mice. The note with it: stress group. The method, then: Using the prefrontal cortex (PFC) lysate samples from mice obtained after the completion of chronic immobilization stress, GS activity and GS expression level were measured by following the method described above.
Furthermore, the level of tyrosine nitration within GS was measured by using immunoprecipitation (IP)-WB. The immunoprecipitation analysis of tyrosine-nitrated GS was performed using an anti-nitrotyrosine antibody (ab61392, Abcam) and Protein A/G PLUS-Agarose (Santa Cruz) according to the manufacturer's protocol.

For experiment [4], the system named is chronic immobilization stress C57BL/6 mice. The experiment can be described thus: Cognitive function (ORT/OLT) in chronic immobilization stress model. It is filed as in vivo. To be noted: stress group, peptide-supplemented diet vs normal diet. How it is done: To analyze the long-term memory capacity of animals following the peptide diet of the present invention, both the object recognition test (ORT) and object location recognition test (OLT) were conducted (FIG. 1). The tests consisted of three phases: habituation, familiarization, and test. During the habituation phase, the animals were acclimated to the testing apparatus for 10 minutes per day over two days. On the third day at the familiarization phase, the animals were allowed to explore two identical objects for 10 minutes. Subsequently, on the fourth day at the test phase, one of the objects was replaced with a novel object, and the animals were allowed to explore for 10 minutes, with result recorded during the initial 5 minutes was used as test data. The object recognition test (ORT) index was calculated using the following formula.
Discrimination index=(N−F)/(N+F) • N: Time spent for exploring new object • F: Time spent for exploring familiar object
After 24 hours of performing the ORT, the location of the familiar object was changed, and the animals were allowed to explore for 5 minutes. During the total exploration time, the ratio of time spent exploring the object with a changed location was calculated to determine the object location recognition test (OLT) index.
A total of 28 seven-week-old male C57BL/6 mice were divided into two groups: a control group and a stress group. […]

In experiment [5] the test system is glutamine synthetase (GS). The experiment in a line: Hippocampal glutamine synthetase activity in kainic acid epileptic seizure model. The note with it: survived mice after kainic acid.
Protocol: Kainic acid (KA) was dissolved in saline by heating in a water bath, resulting in a 4.5 mg/ml KA solution. The resulting KA solution was then intraperitoneally injected at a dose of 36 mg/kg, and seizure level and symptoms were recorded for 2 hours. The brain tissues (prefrontal cortex and hippocampus) of the mice that survived 16 hours or 5 days after the KA injection were collected.
To a 96-well plate, 2 μl of hippocampal homogenate was added, and 50 μl of 50 mM imidazole-HCl buffer (pH 6.8) were added to adjust the volume to 50 μl. Then, 50 μl of GS assay buffer (50 mM imidazole-HCl, pH 6.8, 25 mM L-glutamine, 12.5 mM hydroxylamine, 12.5 mM sodium arsenate, 1 mM MnCl2, and 0.08 mM ADP) were added and the reaction was allowed to occur at 37° C. for approximately 40 minutes. […] To terminate the reaction, 100 μl of stop solution (90 mM FeCl3, 1.8 N HCl, and 1.45% w/v trichloroacetic acid) were added to both the samples and the standard substance, and the absorbance was measured at 560 nm. The GS activity in each sample was determined by comparing it with the standard curve. GS activity was expressed as the generation amount of γ-glutamylhydroxamate, which is produced as a final product, and described in unit of μM/min/μg protein.

`N[C@@H](Cc1ccc(O)cc1)C(=O)O` [L-Tyr, L-tyrosine, reference compound]: the seizure level entry in experiment [1] (5xL-Tyr diet vs normal diet) is “statistically significantly decreased”.
glutamine-tyrosine [QY]: in experiment [2], the “ROS/RNS level in PFC tissue” value is reported as “decreased” and the sucrose preference entry was “increased”. In experiment [3] (IP-WB, peptide diet vs normal diet), the “tyrosine nitration level of GS” value was “statistically significant decrease”. In experiment [3] (peptide diet (330 mg/kg) vs normal diet), the GS activity entry is listed as “statistically significant increase”.
Regarding tyrosine-tryptophan [YW], in experiment [4], the cognitive function result is given as “enhanced cognitive function”. The “activity of the glutamine synthetase in the hippocampal tissue” value in experiment [5] (1xYW) and in experiment [5] (3xYW) was “increased” in each case. The seizure level entry in experiment [1] (1xYW diet one week vs normal diet) was “statistically significantly decreased”.

Source of the values: patent US20240050513A1, “COMPOSITION FOR PREVENTING, AMELIORATING, OR TREATING DISEASE CAUSED BY PROTEIN NITRATION […] WITH TERMINAL TYROSINE AS EFFECTIVE COMPONENT” (INDUSTRY-ACADEMIC COOPERATION FOUNDATION GYEONGSANG …, priority 2021, published 2024).
